Measurements published in ChEMBL document CHEMBL4477206, “Benzylpiperidine-Linked Diarylthiazoles as Potential Anti-Alzheimer's Agents: Synthesis and Biological Evaluation” (J Med Chem, 2016).
Active and inactive are the calls of the source. The calls are words filed in the database; no cut-off is given here.

Legend:
Cholinesterase = Cholinesterase (Equus caballus, UniProt P81908); experiment: Inhibition of equine serum BuChE using BTCI as substrate preincubated for 30 mins followed by substrate addition measured after 30 mins by Ellman assay
in vitro [1] = conditions: human, SH-SY5Y cells
Description: Cytotoxicity against human SH-SY5Y cells assessed as cell viability at 40 uM after 24 hrs by MTT assay

in vitro [2] = conditions: human, SH-SY5Y cells; remark: listed apart in the source
Description: Cytotoxicity against human SH-SY5Y cells assessed as cell viability at 80 uM after 24 hrs by MTT assay

Acetylcholinesterase [3] = target: T1, Acetylcholinesterase (Homo sapiens, UniProt P22303); experiment: Inhibition of human erythrocyte AChE using ATCI as substrate preincubated for 30 mins followed by substrate addition measured after 30 mins by Ellman assay
[4] = Permeability of the compound at 100 ug/ml incubated for 120 mins by PAMPA; type: ADME; conditions: read-out: Peff
Acetylcholinesterase [5] = target: T1, Acetylcholinesterase; conditions: at 10 µM
Description: Inhibition of human erythrocyte AChE-induced Abeta (1 to 42) aggregation at 10 uM incubated for 24 hrs by thioflavin-T fluorescence assay

[6] = Toxicity in Swiss albino mouse assessed as heart damage at 677 to 2000 mg/kg, po treated for 14 days measured on 15th day post treatment; type: organism-based; conditions: in vivo, 336 h
[7] = AUC(0 to 8 hrs) in Wistar rat at 5 mg/kg, po administered as a single dose by HPLC analysis; type: ADME, organism-based; set-up: time < 6 hr, dose 5 mg/kg, route oral; conditions: in vivo
Rattus norvegicus = experiment: Neuroprotective activity in Wistar rat brain hippocampus assessed as increase in Abeta (1 to 42) insult-induced decrease in spontaneous alterations at 5 mg/kg, po administered for 15 days measured for last 5 days of treatment by Y Maze assay; type: functional, organism-based
Mus musculus [8] = experiment: (§1) Neuroprotective activity in Swiss albino mouse assessed as inhibition of scopolamine-induced elevation in MDA level in brain at 5 mg/kg, po administered 30 mins prior to scopolamine challenge administered for 9 days measured after 20 mins of compound incubation by TBARS assay relative to vehicle-treated control; type: functional, organism-based
Mus musculus [9] = experiment: as §1, with “elevation” for “inhibition”, “decrease” for “elevation”, “catalase” for “MDA”, “1 min” for “20 mins”, “spectrophotometrical analysis” for “TBARS assay”; type: functional, organism-based
[10] = Toxicity in Swiss albino mouse assessed as mortality at 677 to 2000 mg/kg, po for 14 days; type: organism-based; conditions: in vivo, 336 h
[11] = Tmax in Wistar rat at 5 mg/kg, po administered as a single dose by HPLC analysis; type: ADME, organism-based; conditions: in vivo
[12] = Toxicity in Swiss albino mouse assessed as kidney damage at 677 to 2000 mg/kg, po treated for 14 days measured on 15th day post treatment; type: organism-based; conditions: in vivo, 336 h
[13] = Toxicity in Swiss albino mouse assessed as liver damage at 677 to 2000 mg/kg, po treated for 14 days measured on 15th day post treatment; type: organism-based; conditions: in vivo, 336 h
[14] = Toxicity in Swiss albino mouse assessed as changes in fur sleekness at 677 to 2000 mg/kg, po for 14 days; type: organism-based; conditions: in vivo, 336 h
Acetylcholinesterase [15] = target: T1, Acetylcholinesterase; experiment: Mixed inhibition of human erythrocyte AChE at 0.05 to 0.4 uM using ATCI as substrate preincubated for 30 mins followed by substrate addition measured after 30 mins by Lineweaver-Burk plot analysis
[16] = Toxicity in Swiss albino mouse assessed as change in water and food consumption at 677 to 2000 mg/kg, po for 14 days; type: organism-based; conditions: in vivo, 336 h
[17] = Terminal half life in Wistar rat at 5 mg/kg, po administered as a single dose by HPLC analysis; type: ADME, organism-based; conditions: in vivo, read-out: beta t1/2 (converted)
[18] = Cmax in Wistar rat at 5 mg/kg, po administered as a single dose by HPLC analysis; type: ADME, organism-based; set-up: dose 5 mg/kg, route oral; conditions: in vivo
[19] = Toxicity in Swiss albino mouse assessed as change in body weight at 677 to 2000 mg/kg, po for 14 days; type: organism-based; conditions: in vivo, 336 h

T1 sequence (P22303 whole entry): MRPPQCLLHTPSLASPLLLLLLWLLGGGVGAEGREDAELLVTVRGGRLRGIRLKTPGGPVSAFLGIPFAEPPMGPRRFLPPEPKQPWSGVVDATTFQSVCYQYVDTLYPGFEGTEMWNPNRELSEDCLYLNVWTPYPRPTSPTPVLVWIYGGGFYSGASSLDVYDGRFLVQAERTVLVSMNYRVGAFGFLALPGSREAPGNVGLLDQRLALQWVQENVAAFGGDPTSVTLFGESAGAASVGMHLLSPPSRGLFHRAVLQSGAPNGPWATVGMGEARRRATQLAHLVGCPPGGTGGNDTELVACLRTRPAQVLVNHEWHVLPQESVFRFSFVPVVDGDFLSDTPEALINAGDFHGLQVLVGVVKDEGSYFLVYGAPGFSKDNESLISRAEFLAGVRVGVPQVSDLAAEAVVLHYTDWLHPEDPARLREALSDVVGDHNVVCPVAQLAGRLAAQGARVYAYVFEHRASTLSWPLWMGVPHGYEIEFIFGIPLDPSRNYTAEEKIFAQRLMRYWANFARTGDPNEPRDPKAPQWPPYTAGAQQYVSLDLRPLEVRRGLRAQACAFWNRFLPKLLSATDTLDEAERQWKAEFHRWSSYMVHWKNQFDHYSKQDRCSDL
Chain of Cholinesterase (P81908 whole entry): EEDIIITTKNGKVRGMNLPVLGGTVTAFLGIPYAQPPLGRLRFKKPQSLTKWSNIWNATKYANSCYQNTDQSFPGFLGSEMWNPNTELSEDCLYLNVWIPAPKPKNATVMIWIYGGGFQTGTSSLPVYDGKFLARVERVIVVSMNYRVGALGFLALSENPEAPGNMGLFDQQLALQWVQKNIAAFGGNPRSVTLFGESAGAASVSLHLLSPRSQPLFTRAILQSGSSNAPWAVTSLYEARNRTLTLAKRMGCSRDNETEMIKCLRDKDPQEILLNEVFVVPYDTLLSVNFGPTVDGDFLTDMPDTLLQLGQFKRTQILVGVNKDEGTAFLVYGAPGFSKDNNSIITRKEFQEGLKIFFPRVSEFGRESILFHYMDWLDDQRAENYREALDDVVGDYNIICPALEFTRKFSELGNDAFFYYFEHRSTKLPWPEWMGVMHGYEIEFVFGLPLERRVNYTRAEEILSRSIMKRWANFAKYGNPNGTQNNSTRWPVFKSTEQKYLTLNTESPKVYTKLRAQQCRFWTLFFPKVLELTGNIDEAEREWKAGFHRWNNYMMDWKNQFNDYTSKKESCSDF

Compound	IC50 (Cholinesterase) [nM]	viability at 24 h, 40 µM (in vitro [1]) [%]	viability at 24 h, 80 µM (in vitro [2]) [%]	IC50 (Acetylcholinesterase [3]) [nM]	Papp at 2 h, 100 ug/ml [4] [×10⁻⁶ cm/s]	inhibition (Acetylcholinesterase [5]) [%]	further results
COc1ccc(-c2nc(NCC3CCN(Cc4ccccc4C)CC3)sc2-c2ccc(OC)cc2)cc1	2210	91.6	87.2	590	12.3	25.6	
COc1ccc(-c2nc(NC(=O)C3CCN(Cc4ccccc4C(F)(F)F)CC3)sc2-c2ccc(OC)cc2)cc1	1920	92.4	93.1	680	12.3	14.5	
COc1ccc(CN2CCC(Nc3nc(-c4ccc(OC)cc4)c(-c4ccc(OC)cc4)s3)CC2)cc1	2530	92.1	89.5	770	10.3	11.4	
Cc1ccccc1CN1CCC(CNc2nc(-c3ccc(Cl)cc3)c(-c3ccc(Cl)cc3)s2)CC1	1430	95.4	90.9	870	8.8	23.3	
COc1ccc(-c2nc(NCC3CCN(Cc4c(F)cccc4Cl)CC3)sc2-c2ccc(OC)cc2)cc1	2150	94.2	87.1	360	12.2	27.2	
O=C(Nc1nc(-c2ccc(Cl)cc2)c(-c2ccc(Cl)cc2)s1)C1CCN(Cc2cccc(F)c2)CC1	720	93.6	91.1	650	15.9	18.8	
COc1ccc(-c2nc(NC(=O)C3CCN(Cc4c(F)cccc4Cl)CC3)sc2-c2ccc(OC)cc2)cc1	1570	92.9	91.6	410	8.2	16.6	
Cc1ccc(-c2nc(NCC3CCN(Cc4ccccc4C)CC3)sc2-c2ccc(C)cc2)cc1	2510	91.4	90.1	500	10.6	16.2	
Cc1ccc(-c2nc(NCC3CCN(Cc4cc(F)cc(F)c4)CC3)sc2-c2ccc(C)cc2)cc1	1840	95.2	91.3		14.5	27.6	Activity [6]: Non-Toxic; AUC(0-t) at 6 h [7]: 587 ng·h/mL; Activity (Rattus norvegicus): Active; Activity (Mus musculus [8]): Active; Activity (Mus musculus [9]): Active; Activity [10]: Non-Toxic; Tmax [11]: 3.66 h; Activity [12]: Non-Toxic; Activity [13]: Non-Toxic; Activity [14]: Non-Toxic; inhibition (Acetylcholinesterase [15]): Active; Activity [16]: Non-Toxic; half-life [17]: 19.4 h; Cmax [18]: 21.2 ng/mL; Activity [19]: Non-Toxic
